Values after ≈ are worked out from the molar mass of the structure shown.
Assays:
Assay in all cases: Microtitre plate assay, IC90 determination
Assay type in all cases: cell-based
[1] = tested on: STA 29213 (Staphylococcus aureus (ATCC29213)); details: for IC90 (μg/ml) STA 29213: Staphylococcus aureus (ATCC29213); for IC90: Staphylococcus aureus, ATCC29213, Staphylococcus aureus (ATCC29213), read-out: IC90 (μg/ml) STA 29213
Procedure, shortened: (§1)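 Growth-inhibition endpoint: resazurin added 3 h after inoculation, plates incubated overnight, fluorescence at 530/590 nm after 24 h at 37 °C. Inocula of roughly 10–60 CFU per well in Mueller-Hinton medium; compounds titrated five-fold. IC90 reported as μg/ml.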

[2] = tested on: SPN 6305 (Streptococcus pneumoniae (ATCC6305)); details: for IC90 (μg/ml) SPN 6305: Streptococcus pneumoniae (ATCC6305); for IC90: Streptococcus pneumoniae, ATCC6305, Streptococcus pneumoniae (ATCC6305), read-out: IC90 (μg/ml) SPN 6305
Procedure, shortened: as §1

[3] = tested on: SPY 8668 (Streptococcus pyogens (ATCC8668)); details: for IC90 (μg/ml) SPY 8668: Streptococcus pyogens (ATCC8668); for IC90: Streptococcus, ATCC8668, Streptococcus pyogens (ATCC8668), read-out: IC90 (μg/ml) SPY 8668
[4] = tested on: LMO 49594 (Listeria monocytogenes (ATCC49594)); details: for IC90 (μg/ml) LMO 49594: Listeria monocytogenes (ATCC49594); for IC90: Listeria monocytogenes, ATCC49594, Listeria monocytogenes (ATCC49594), read-out: IC90 (μg/ml) LMO 49594
[5] = tested on: BSU 43639 (Bacillus subtilis (ATCC43639)); details: for IC90 (μg/ml) BSU 43639: Bacillus subtilis (ATCC43639); for IC90: Bacillus subtilis, ATCC43639, Bacillus subtilis (ATCC43639), read-out: IC90 (μg/ml) BSU 43639
[6] = tested on: EFA 29212 (Enterococcus faecalis (ATCC29212)); details: for IC90 (μg/ml) EFA 29212: Enterococcus faecalis (ATCC29212); for IC90: Enterococcus faecalis, ATCC29212, Enterococcus faecalis (ATCC29212), read-out: IC90 (μg/ml) EFA 29212
[7] = tested on: STA RMETH (methicilline resistant Staphylococcus aureus (MRSA), a clinical isolate from the University of Antwerp); details: for IC90: Staphylococcus aureus, MRSA, read-out: IC90 (μg/ml) STA RMETH
[8] = tested on: PAE 27853 (Pseudomonas aeruginosa (ATCC27853)); details: for IC90 (μg/ml) PAE 27853: Pseudomonas aeruginosa (ATCC27853); for IC90: Pseudomonas aeruginosa, ATCC27853, Pseudomonas aeruginosa (ATCC27853), read-out: IC90 (μg/ml) PAE 27853
[9] = tested on: STA 25923 (Staphylococcus aureus (ATCC25923)); details: for IC90 (μg/ml) STA 25923: Staphylococcus aureus (ATCC25923); for IC90: Staphylococcus aureus, ATCC25923, Staphylococcus aureus (ATCC25923), read-out: IC90 (μg/ml) STA 25923

SMILES	IC90 (μg/ml) STA 29213 [1] [µg/mL]	IC90 (μg/ml) SPN 6305 [2] [µg/mL]	IC90 (μg/ml) SPY 8668 [3] [µg/mL]	IC90 (μg/ml) EFA 29212 [6] [µg/mL]	IC90 (μg/ml) STA RMETH [7] [µg/mL]	IC90 (μg/ml) PAE 27853 [8] [µg/mL]	IC90 [3] [µg/mL]	IC90 [4] [µg/mL]	IC90 [5] [µg/mL]	IC90 [6] [µg/mL]	IC90 [7] [µg/mL]	IC90 [8] [µg/mL]	IC90 [1] [µg/mL]	IC90 [2] [µg/mL]	IC90 [9] [µg/mL]	IC90 (μg/ml) LMO 49594 [4] [µg/mL]	IC90 (μg/ml) BSU 43639 [5] [µg/mL]	IC90 (μg/ml) STA 25923 [9] [µg/mL]
COc1nc2ccc(Br)cc2cc1C(c1ccccc1)C(O)(CCCN1CCCC1)c1ccc2ccccc2c1 (racemic) [Compound 48]	47.3 (≈ 79.4 µM)	59.6 (≈ 100 µM)	47.3 (≈ 79.4 µM)	59.6 (≈ 100 µM)	9.4 (≈ 15.8 µM)	47.3 (≈ 79.4 µM)	–	–	–	–	–	–	–	–	–	23.7 (≈ 39.8 µM)	59.6 (≈ 100 µM)	9.4 (≈ 15.8 µM)
COc1nc2ccc(Br)cc2cc1C(c1ccccc1)C(O)(CCCN1CCCC1)c1ccc2ccccc2c1 (racemic) [Compound 49]	47.3 (≈ 79.4 µM)	11.9 (≈ 20 µM)	47.3 (≈ 79.4 µM)	47.3 (≈ 79.4 µM)	59.6 (≈ 100 µM)	53.1 (≈ 89.2 µM)	–	–	–	–	–	–	–	–	–	47.3 (≈ 79.4 µM)	59.6 (≈ 100 µM)	59.6 (≈ 100 µM)
COc1ccc2cc(C(O)(CCCCN(C)C)C(c3ccccc3)c3cc4cc(Br)ccc4nc3OC)ccc2c1 (single isomer, unassigned) [Compound 6]	4.3 (≈ 7.01 µM)	4.9 (≈ 7.99 µM)	1.9 (≈ 3.1 µM)	9.7 (≈ 15.8 µM)	9.7 (≈ 15.8 µM)	9.7 (≈ 15.8 µM)	–	–	–	–	–	–	–	–	–	9.7 (≈ 15.8 µM)	9.7 (≈ 15.8 µM)	–
COc1nc2ccc(Br)cc2cc1C(c1ccccc1)C(O)(CCCCN1CCN(C)CC1)CCc1ccccc1 (single isomer, unassigned) [Compound 138]	2.45 (≈ 3.97 µM)	2.19 (≈ 3.55 µM)	0.87 (≈ 1.41 µM)	1.74 (≈ 2.82 µM)	12.3 (≈ 19.9 µM)	2.19 (≈ 3.55 µM)	–	–	–	–	–	–	–	–	–	–	–	–
COc1nc2ccc(Br)cc2cc1C(c1ccccc1)C(O)(CCCCN1CCN(C)CC1)CCc1ccc(C)cc1 (single isomer, unassigned) [Compound 141]	1.99 (≈ 3.16 µM)	1.99 (≈ 3.16 µM)	4.46 (≈ 7.07 µM)	4.46 (≈ 7.07 µM)	14.12 (≈ 22.4 µM)	4.46 (≈ 7.07 µM)	–	–	–	–	–	–	–	–	–	–	–	–
COc1nc2ccc(Br)cc2cc1C(c1ccccc1)C(O)(CCCCN(C)C)c1ccccc1 (stereo not shown) [Compound 20]	–	2.1 (≈ 3.94 µM)	4.2 (≈ 7.87 µM)	–	–	–	–	13.4 (≈ 25.1 µM)	10.6 (≈ 19.9 µM)	10.6 (≈ 19.9 µM)	10.6 (≈ 19.9 µM)	10.6 (≈ 19.9 µM)	10.6 (≈ 19.9 µM)	–	10.6 (≈ 19.9 µM)	–	–	–
COc1nc2ccc(Br)cc2cc1C(c1ccccc1)C(O)(CCCCN(C)C)c1ccccc1 (stereo not shown) [Compound 21]	10.6 (≈ 19.9 µM)	11.9 (≈ 22.3 µM)	10.6 (≈ 19.9 µM)	21.2 (≈ 39.7 µM)	10.6 (≈ 19.9 µM)	10.6 (≈ 19.9 µM)	–	–	–	–	–	–	–	–	–	10.6 (≈ 19.9 µM)	10.6 (≈ 19.9 µM)	10.6 (≈ 19.9 µM)
COc1ccc2cc(C(O)(CCCCN(C)C)C(c3ccccc3)c3cc4ccccc4nc3OC)ccc2c1 (stereo not shown) [Compound 35]	–	–	3.8 (≈ 7.11 µM)	–	–	8.5 (≈ 15.9 µM)	–	–	–	8.5 (≈ 15.9 µM)	10.7 (≈ 20 µM)	–	2.1 (≈ 3.93 µM)	1.7 (≈ 3.18 µM)	–	–	–	–
COc1nc2ccc(-c3ccccc3)cc2cc1C(c1ccccc1)C(O)(CCCCN(C)C)c1ccc2ccccc2c1 (stereo not shown) [Compound 40]	–	1.8 (≈ 3.1 µM)	1.8 (≈ 3.1 µM)	1.8 (≈ 3.1 µM)	–	1.8 (≈ 3.1 µM)	–	–	–	–	5.2 (≈ 8.95 µM)	–	7.3 (≈ 12.6 µM)	–	–	–	–	–
COc1nc2ccc(-c3ccccc3)cc2cc1C(c1ccccc1)C(O)(CCCCN(C)C)c1ccc2ccccc2c1 (stereo not shown) [Compound 41]	9.2 (≈ 15.8 µM)	9.2 (≈ 15.8 µM)	9.2 (≈ 15.8 µM)	9.2 (≈ 15.8 µM)	9.2 (≈ 15.8 µM)	36.6 (≈ 63 µM)	–	9.2 (≈ 15.8 µM)	9.2 (≈ 15.8 µM)	–	–	–	–	–	–	–	–	–
CNCCCCC(O)(CCc1ccccc1)C(c1ccccc1)c1cc2cc(Br)ccc2nc1OC (stereo not shown) [Compound 70]	–	0.35 (≈ 0.639 µM)	1.73 (≈ 3.16 µM)	2.18 (≈ 3.98 µM)	–	1.73 (≈ 3.16 µM)	–	–	–	–	10.9 (≈ 19.9 µM)	–	1.73 (≈ 3.16 µM)	–	–	–	–	–
CNCCCCC(O)(CCc1ccccc1)C(c1ccccc1)c1cc2cc(Br)ccc2nc1OC (stereo not shown) [Compound 71]	1.73 (≈ 3.16 µM)	1.73 (≈ 3.16 µM)	3.88 (≈ 7.09 µM)	8.68 (≈ 15.9 µM)	10.92 (≈ 19.9 µM)	8.68 (≈ 15.9 µM)	–	–	–	–	–	–	–	–	–	–	–	–

The next lines start with results.

IC90 (μg/ml) STA 29213 [1] [µg/mL]	IC90 (μg/ml) SPN 6305 [2] [µg/mL]	IC90 (μg/ml) SPY 8668 [3] [µg/mL]	IC90 (μg/ml) EFA 29212 [6] [µg/mL]	IC90 (μg/ml) STA RMETH [7] [µg/mL]	IC90 (μg/ml) PAE 27853 [8] [µg/mL]	IC90 [3] [µg/mL]	IC90 [4] [µg/mL]	IC90 [5] [µg/mL]	IC90 [6] [µg/mL]	IC90 [7] [µg/mL]	IC90 [8] [µg/mL]	IC90 [1] [µg/mL]	IC90 [2] [µg/mL]	IC90 [9] [µg/mL]	SMILES	IC90 (μg/ml) LMO 49594 [4] [µg/mL]	IC90 (μg/ml) BSU 43639 [5] [µg/mL]	IC90 (μg/ml) STA 25923 [9] [µg/mL]
1.9 (≈ 3.17 µM)	1.9 (≈ 3.17 µM)	–	–	–	–	1.9 (≈ 3.17 µM)	9.5 (≈ 15.8 µM)	9.5 (≈ 15.8 µM)	9.5 (≈ 15.8 µM)	9.5 (≈ 15.8 µM)	1.9 (≈ 3.17 µM)	–	–	–	CSc1nc2ccc(Br)cc2cc1C(c1ccccc1)C(O)(CCCCN(C)C)c1ccc2ccccc2c1 (single isomer, unassigned) [Compound 4]	–	–	–
1.74 (≈ 3.17 µM)	1.74 (≈ 3.17 µM)	1.74 (≈ 3.17 µM)	6.92 (≈ 12.6 µM)	12.3 (≈ 22.4 µM)	1.95 (≈ 3.55 µM)	–	–	–	–	–	–	–	–	–	CSc1nc2ccc(Br)cc2cc1C(c1ccccc1)C(O)(CCCCN(C)C)c1ccccc1 (stereo not shown) [Compound 1]	–	–	–
43.7 (≈ 79.5 µM)	21.9 (≈ 39.8 µM)	8.7 (≈ 15.8 µM)	43.7 (≈ 79.5 µM)	43.7 (≈ 79.5 µM)	43.7 (≈ 79.5 µM)	–	43.7 (≈ 79.5 µM)	43.7 (≈ 79.5 µM)	–	–	–	–	–	–	CSc1nc2ccc(Br)cc2cc1C(c1ccccc1)C(O)(CCCCN(C)C)c1ccccc1 (stereo not shown) [Compound 2]	–	–	–
–	2.4 (≈ 3.62 µM)	–	10.5 (≈ 15.8 µM)	10.5 (≈ 15.8 µM)	–	10.5 (≈ 15.8 µM)	10.5 (≈ 15.8 µM)	10.5 (≈ 15.8 µM)	–	–	10.5 (≈ 15.8 µM)	2.1 (≈ 3.17 µM)	–	–	COc1nc2ccc(Br)cc2cc1C(c1ccccc1)C(O)(CCCCN(C)C)c1ccc2cc(Br)ccc2c1 (stereo not shown) [Compound 7]	–	–	–
2.4 (≈ 3.62 µM)	10.5 (≈ 15.8 µM)	10.5 (≈ 15.8 µM)	2.1 (≈ 3.17 µM)	2.6 (≈ 3.92 µM)	5.3 (≈ 8 µM)	–	–	–	–	–	–	–	–	–	COc1nc2ccc(Br)cc2cc1C(c1ccccc1)C(O)(CCCCN(C)C)c1ccc2cc(Br)ccc2c1 (stereo not shown) [Compound 8]	–	–	–
–	–	–	–	–	–	14.7 (≈ 25.2 µM)	11.6 (≈ 19.9 µM)	14.7 (≈ 25.2 µM)	14.7 (≈ 25.2 µM)	14.7 (≈ 25.2 µM)	14.7 (≈ 25.2 µM)	14.7 (≈ 25.2 µM)	14.7 (≈ 25.2 µM)	14.7 (≈ 25.2 µM)	COc1nc2ccc(Br)cc2cc1C(c1ccccc1)C(O)(CCCCN(C)C)c1cccc2ccccc12 (stereo not shown) [Compound 19]	–	–	–
–	9.3 (≈ 15.9 µM)	–	–	2.3 (≈ 3.94 µM)	–	20.7 (≈ 35.5 µM)	–	–	46.3 (≈ 79.3 µM)	–	20.7 (≈ 35.5 µM)	1.9 (≈ 3.26 µM)	–	–	COc1nc2cccc(Br)c2cc1C(c1ccccc1)C(O)(CCCCN(C)C)c1ccc2ccccc2c1 (stereo not shown) [Compound 29]	–	–	–
1.9 (≈ 3.26 µM)	1.9 (≈ 3.26 µM)	1.9 (≈ 3.26 µM)	1.9 (≈ 3.26 µM)	–	1.9 (≈ 3.26 µM)	–	–	–	–	11.6 (≈ 19.9 µM)	–	–	–	–	COc1nc2cc(Br)ccc2cc1C(c1ccccc1)C(O)(CCCCN(C)C)c1ccc2ccccc2c1 (stereo not shown) [Compound 32]	–	–	–
4.1 (≈ 7.03 µM)	9.3 (≈ 15.9 µM)	46.3 (≈ 79.3 µM)	46.3 (≈ 79.3 µM)	5.8 (≈ 9.94 µM)	52.0 (≈ 89.1 µM)	–	–	–	–	–	–	–	–	–	COc1nc2cc(Br)ccc2cc1C(c1ccccc1)C(O)(CCCCN(C)C)c1ccc2ccccc2c1 (stereo not shown) [Compound 33]	–	–	–

From patent publication US8841321B2, “Quinoline derivatives as antibacterial agents” (Janssen Pharmaceutica NV, priority 2005, dated 2014)
